Data as given in ChEMBL document CHEMBL1201862, “PubChem BioAssay data set” (2004).
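Briefly, cells in 96-well plates were exposed to five compound concentrations for 48 h, and endpoints were estimated by linear interpolation. Here, GI50 denotes the concentration required for 50% inhibition of growth.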 Activity calls are given as the source filed them. No stated cut-off is given here; in the data, active = GI50 up to about 1.1 µM and inactive = higher.

What was measured:
Assay in all cases: NCI-60 cell line screen, 48 h
NCI/ADR-RES = tested on: NCI/ADR-RES
HT-29 = tested on: HT-29
UACC-257 = tested on: UACC-257
NCI-H23 = tested on: NCI-H23
SK-MEL-5 = tested on: SK-MEL-5
M14 = tested on: M14
T47D = tested on: T47D
MDA-MB-435 = tested on: MDA-MB-435
SK-MEL-2 = tested on: SK-MEL-2
UO-31 = tested on: UO-31
U-251 = tested on: U-251
SF-539 = tested on: SF-539
IGROV-1 = tested on: IGROV-1
SF-295 = tested on: SF-295
786-0 = tested on: 786-0
MDA-N = tested on: MDA-N
OVCAR-3 = tested on: OVCAR-3
HCT-15 = tested on: HCT-15
PC-3 = tested on: PC-3
MOLT-4 = tested on: MOLT-4

CC(=O)O[C@H](C[C@@H](C)[C@H]1C(=O)[C@H](O)[C@@]2(C)C3CC[C@H]4C(C)(C)[C@@H](OC5OCC(O)C(O)C5O)CC[C@@]45C[C@@]35CC[C@]12C)[C@@H]1OC1(C)C (stereo partly drawn)
GI50 (NCI/ADR-RES): 47.3 µM (inactive) | GI50 (HT-29): 29.4 µM (inactive) | GI50 (UACC-257): 18.6 µM (inactive) | GI50 (NCI-H23): 23.9 µM (inactive) | GI50 (SK-MEL-5): 16.1 µM (inactive) | GI50 (M14): 31.1 µM (inactive) | GI50 (T47D): 17.4 µM (inactive) | GI50 (MDA-MB-435): 17.7 µM (inactive) | GI50 (SK-MEL-2): 16 µM (inactive) | GI50 (UO-31): 22.9 µM (inactive) | GI50 (U-251): 16.3 µM (inactive) | GI50 (SF-539): 16.3 µM (inactive) | GI50 (IGROV-1): 16.2 µM (inactive) | GI50 (SF-295): 16.3 µM (inactive) | GI50 (786-0): 16.6 µM (inactive) | GI50 (MDA-N): 19.3 µM (inactive) | GI50 (OVCAR-3): 2.29 µM (inactive) | GI50 (HCT-15): 24.6 µM | GI50 (PC-3): 15.2 µM (inactive)

N#Cc1c(O)nc2nn3c4ccc5ccccc5c4nnc3c2c1-c1ccc(Cl)cc1
GI50 (NCI/ADR-RES): 4.55 µM (inactive) | GI50 (HT-29): 2.94 µM (inactive) | GI50 (UACC-257): 3.58 µM (inactive) | GI50 (NCI-H23): 1.97 µM (inactive) | GI50 (SK-MEL-5): 1.92 µM (inactive) | GI50 (M14): 2.38 µM (inactive) | GI50 (T47D): 0.313 µM (active) | GI50 (MOLT-4): 2.4 µM (inactive) | GI50 (MDA-MB-435): 3.3 µM (inactive) | GI50 (SK-MEL-2): 1.9 µM (inactive) | GI50 (UO-31): 2.38 µM (inactive) | GI50 (U-251): 2.12 µM (inactive) | GI50 (SF-539): 1.96 µM (inactive) | GI50 (IGROV-1): 1.2 µM (inactive) | GI50 (SF-295): 1.84 µM (inactive) | GI50 (786-0): 2.59 µM (inactive) | GI50 (MDA-N): 2.52 µM (inactive) | GI50 (OVCAR-3): 1.69 µM (inactive) | GI50 (HCT-15): 1.89 µM | GI50 (PC-3): 2.43 µM (inactive)

CC(=O)N1C(C(=O)NN2CCOCC2)CSC1c1ccccc1 (stereo not drawn)
GI50 (NCI/ADR-RES): > 100 µM (inactive) | GI50 (HT-29): > 100 µM (inactive) | GI50 (UACC-257): > 100 µM (inactive) | GI50 (NCI-H23): > 100 µM (inactive) | GI50 (SK-MEL-5): > 100 µM (inactive) | GI50 (M14): > 100 µM (inactive) | GI50 (T47D): > 100 µM (inactive) | GI50 (MOLT-4): > 100 µM (inactive) | GI50 (MDA-MB-435): > 100 µM (inactive) | GI50 (SK-MEL-2): > 100 µM (inactive) | GI50 (UO-31): > 100 µM (inactive) | GI50 (U-251): > 100 µM (inactive) | GI50 (SF-539): > 100 µM (inactive) | GI50 (IGROV-1): > 100 µM (inactive) | GI50 (SF-295): > 100 µM (inactive) | GI50 (786-0): > 100 µM (inactive) | GI50 (MDA-N): > 100 µM (inactive) | GI50 (OVCAR-3): > 100 µM (inactive) | GI50 (HCT-15): > 100 µM | GI50 (PC-3): > 100 µM (inactive)

O=c1oc2ccccc2cc1-c1cn2ccccc2n1
GI50 (NCI/ADR-RES): 3.15 µM (inactive) | GI50 (HT-29): 12.6 µM (inactive) | GI50 (UACC-257): 3.89 µM (inactive) | GI50 (NCI-H23): 12.1 µM (inactive) | GI50 (SK-MEL-5): 6.18 µM (inactive) | GI50 (M14): 8.51 µM (inactive) | GI50 (T47D): 14.6 µM (inactive) | GI50 (MOLT-4): 18.6 µM (inactive) | GI50 (MDA-MB-435): 4.1 µM (inactive) | GI50 (SK-MEL-2): 5 µM (inactive) | GI50 (UO-31): 2.36 µM (inactive) | GI50 (U-251): 2.33 µM (inactive) | GI50 (SF-539): 4.17 µM (inactive) | GI50 (IGROV-1): 7.05 µM (inactive) | GI50 (SF-295): 3.66 µM (inactive) | GI50 (786-0): 3.8 µM (inactive) | GI50 (MDA-N): 4.88 µM (inactive) | GI50 (OVCAR-3): 4.16 µM (inactive) | GI50 (HCT-15): 16.7 µM | GI50 (PC-3): 4.26 µM (inactive)

CC(=O)NC1C(OCc2ccccc2)OC(CO)C(O)C1OCC(=O)N[C@@H](C)C(=O)N[C@H](CCC(=O)NCCNCCNc1c2ccccc2nc2cccc([N+](=O)[O-])c12)C(N)=O (stereo partly drawn)
GI50 (NCI/ADR-RES): > 100 µM (inactive) | GI50 (HT-29): 23.6 µM (inactive) | GI50 (UACC-257): 21.2 µM (inactive) | GI50 (NCI-H23): 16.4 µM (inactive) | GI50 (SK-MEL-5): 17.8 µM (inactive) | GI50 (M14): 56 µM (inactive) | GI50 (T47D): 27.5 µM (inactive) | GI50 (MDA-MB-435): 29.6 µM (inactive) | GI50 (SK-MEL-2): 22.3 µM (inactive) | GI50 (UO-31): 44.8 µM (inactive) | GI50 (U-251): 34.3 µM (inactive) | GI50 (SF-539): 33.3 µM (inactive) | GI50 (IGROV-1): 8.87 µM (inactive) | GI50 (SF-295): 57.4 µM (inactive) | GI50 (786-0): 25.4 µM (inactive) | GI50 (MDA-N): 33.1 µM (inactive) | GI50 (OVCAR-3): 44 µM (inactive) | GI50 (HCT-15): 22.6 µM | GI50 (PC-3): 22.1 µM (inactive)

CCC(CC)(CO)CNc1cc(Cl)nc(N)n1
GI50 (NCI/ADR-RES): > 100 µM (inactive) | GI50 (HT-29): > 100 µM (inactive) | GI50 (UACC-257): > 100 µM (inactive) | GI50 (NCI-H23): > 100 µM (inactive) | GI50 (SK-MEL-5): 60.7 µM (inactive) | GI50 (T47D): 45.6 µM (inactive) | GI50 (MOLT-4): > 100 µM (inactive) | GI50 (MDA-MB-435): > 100 µM (inactive) | GI50 (SK-MEL-2): > 100 µM (inactive) | GI50 (UO-31): > 100 µM (inactive) | GI50 (U-251): > 100 µM (inactive) | GI50 (SF-539): > 100 µM (inactive) | GI50 (IGROV-1): > 100 µM (inactive) | GI50 (SF-295): > 100 µM (inactive) | GI50 (786-0): > 100 µM (inactive) | GI50 (MDA-N): 89.5 µM (inactive) | GI50 (OVCAR-3): > 100 µM (inactive) | GI50 (HCT-15): > 100 µM | GI50 (PC-3): > 100 µM (inactive)

C/C1=C/C[C@@H](/C(C)=C/c2csc(C)n2)OC(=O)C[C@H](O)C(C)(C)C(=O)[C@H](C)[C@@H](O)[C@@H](C)CCC1 [EPOTHILONE D]
GI50 (NCI/ADR-RES): < 0.0001 µM (active) | GI50 (HT-29): < 0.0001 µM (active) | GI50 (NCI-H23): < 0.0001 µM (active) | GI50 (SK-MEL-5): < 0.0001 µM (active) | GI50 (M14): < 0.0001 µM (active) | GI50 (T47D): < 0.0001 µM (active) | GI50 (MOLT-4): < 0.0001 µM (active) | GI50 (MDA-MB-435): < 0.0001 µM (active) | GI50 (SK-MEL-2): < 0.0001 µM (active) | GI50 (UO-31): < 0.0001 µM (active) | GI50 (U-251): < 0.0001 µM (active) | GI50 (SF-539): < 0.0001 µM (active) | GI50 (IGROV-1): < 0.0001 µM (active) | GI50 (SF-295): < 0.0001 µM (active) | GI50 (786-0): < 0.0001 µM (active) | GI50 (MDA-N): < 0.0001 µM (active) | GI50 (OVCAR-3): < 0.0001 µM (active) | GI50 (HCT-15): < 0.0001 µM | GI50 (PC-3): < 0.0001 µM (active)

CC1C[C@]2(C)C(=S)Nc3ccccc3[C@@H]2Nc2ccccc21 (stereo partly drawn)
GI50 (NCI/ADR-RES): 18.5 µM (inactive) | GI50 (HT-29): 11.9 µM (inactive) | GI50 (UACC-257): 15.6 µM (inactive) | GI50 (NCI-H23): 15.2 µM (inactive) | GI50 (SK-MEL-5): 17.7 µM (inactive) | GI50 (M14): 17.4 µM (inactive) | GI50 (T47D): 17.9 µM (inactive) | GI50 (MOLT-4): 17.5 µM (inactive) | GI50 (MDA-MB-435): 14.9 µM (inactive) | GI50 (SK-MEL-2): 13 µM (inactive) | GI50 (UO-31): 18.7 µM (inactive) | GI50 (SF-539): 19.3 µM (inactive) | GI50 (IGROV-1): 18.3 µM (inactive) | GI50 (SF-295): 18.5 µM (inactive) | GI50 (786-0): 16.3 µM (inactive) | GI50 (MDA-N): 15 µM (inactive) | GI50 (OVCAR-3): 15.1 µM (inactive) | GI50 (HCT-15): 21.6 µM | GI50 (PC-3): 15.4 µM (inactive)

O=C(N/N=C/c1ccc([N+](=O)[O-])o1)c1ccc(C(=O)N/N=C/c2ccc([N+](=O)[O-])o2)cc1
GI50 (NCI/ADR-RES): 73.3 µM (inactive) | GI50 (HT-29): 38.6 µM (inactive) | GI50 (NCI-H23): 42.3 µM (inactive) | GI50 (SK-MEL-5): 22.6 µM (inactive) | GI50 (M14): 35.5 µM (inactive) | GI50 (T47D): 41.3 µM (inactive) | GI50 (MOLT-4): 23.8 µM (inactive) | GI50 (MDA-MB-435): 16.2 µM (inactive) | GI50 (SK-MEL-2): 74.5 µM (inactive) | GI50 (UO-31): > 100 µM (inactive) | GI50 (U-251): 50.2 µM (inactive) | GI50 (SF-539): 14.9 µM (inactive) | GI50 (IGROV-1): 30.7 µM (inactive) | GI50 (SF-295): 40.4 µM (inactive) | GI50 (786-0): 76.2 µM (inactive) | GI50 (MDA-N): 20.7 µM (inactive) | GI50 (OVCAR-3): 26.1 µM (inactive) | GI50 (HCT-15): 29.8 µM | GI50 (PC-3): 64.7 µM (inactive)

N=C(/C=C/c1ccc(-c2cn3cc(/C=C/C(=N)N4CCCC4)ccc3n2)cc1)N1CCCC1
GI50 (NCI/ADR-RES): > 100 µM (inactive) | GI50 (UACC-257): 78.7 µM (inactive) | GI50 (NCI-H23): > 100 µM (inactive) | GI50 (SK-MEL-5): > 100 µM (inactive) | GI50 (M14): > 100 µM (inactive) | GI50 (T47D): > 100 µM (inactive) | GI50 (MOLT-4): > 100 µM (inactive) | GI50 (MDA-MB-435): > 100 µM (inactive) | GI50 (SK-MEL-2): > 100 µM (inactive) | GI50 (UO-31): > 100 µM (inactive) | GI50 (U-251): 50.2 µM (inactive) | GI50 (SF-539): 47.3 µM (inactive) | GI50 (IGROV-1): > 100 µM (inactive) | GI50 (SF-295): > 100 µM (inactive) | GI50 (786-0): 85.5 µM (inactive) | GI50 (MDA-N): > 100 µM (inactive) | GI50 (OVCAR-3): 60.1 µM (inactive) | GI50 (HCT-15): > 100 µM | GI50 (PC-3): > 100 µM (inactive)
